From US9272040B2, “5-CNAC as oral delivery agent for parathyroid hormone fragments” (Novartis AG, priority 2001, dated 2016)

Assay: Primate administration: plasma hPTH by radioimmunoassay after oral capsule
Type: in vivo
Settings: Table 2 versus Table 1, Rhesus monkey
Procedure: The capsules prepared in Example 1 are administered to Rhesus monkeys as follows: four monkeys in a group are each dosed with one capsule prepared as in Example 1 as follows:
The Rhesus monkeys fast overnight prior to dosing and are restrained in chairs fully conscious, for the duration of the study period. The capsules are orally administered via a gavage tube followed by 10 ml of water.
Blood samples are collected at 0, 0.25, 0.5, 0.75, 1, 1.5, 2, 3, 4, 5, and 6 hours after administration. Plasma hPTH levels are determined by radioimmunoassay. The primate plasma PTH results from each group of monkeys are averaged and the maximum mean plasma calculated.

O=C(O)CCCCCCCNC(=O)c1cc(Cl)ccc1O [Capsule 5-CNAC, N-(5-chlorosalicyloyl)-8-aminocaprylic acid]
effect of carrier on oral delivery of the hPTH fragment: significantly facilitates the oral delivery of the hPTH fragment
